Experimental data published in patent US9890147B2 (BAYER PHARMA AKTIENGESELLSCHAFT, priority 2012, dated 2018).
pIC50: −log10 of the molar value.

Experiments:
[1] = tested on: MOLM-13 cells; experiment: Cell proliferation assay (alamarBlue), MOLM-13; assay type: cell-based; conditions: Homo sapiens, 96 hours incubation, inhibition of cell proliferation
Summary of the method: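 Cells in RPMI1640/10% FCS read by alamarBlue fluorescence (ex 530, em 590 nm) after overnight 37 °C incubation, then treated at 1E-5 to 1E-8 M for 96 h. Pre-treatment values subtracted from endpoint values and compared with buffer-only wells; IC50 is 50% proliferation inhibition.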

[2] = target: T1, BRD4 (BD1) (Homo sapiens, UniProt O60885); experiment: Binding assay BRD4/acetylated peptide H4 (TR-FRET protein-protein interaction assay)
T1 construct: with relatively long constructs also being possible, preferably amino acids 44-168; made in house; host or cells: E. coli
Summary of the method: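 His6-BRD4 BD1 (aa 67-152, E. coli), usually 10 nM, with biotinylated tetra-acetylated H4 peptide in HEPES pH 7.5 buffer; 11 compound concentrations 0.1 nM–20 μM in duplicate, 10 min preincubation, 1 h at 22 °C then ≥3 h at 4 °C. TR-FRET 665/620 ratio; IC50 by 4-parameter fit.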

Structure (SMILES) | pIC50 [1] | pIC50 [2]
CNC(=O)N1N=C(c2ccc(-c3cnccc3C)cc2)c2cc(OC)c(OC)cc2CC1C (racemic) [Example 82, (±)-7,8-dimethoxy-N,4-dimethyl-1-[4-(4-methylpyridin-3-yl)phenyl]-4,5-dihydro-3H-2,3-benzodiazepine-3-carboxamide] | 6.26 | 7.10
CNC(=O)N1N=C(c2ccc(-c3ccc(CO)cc3)cc2)c2cc(OC)c(OC)cc2CC1C (racemic) [Example 94, (±)-1-[4′-(hydroxymethyl)biphenyl-4-yl]-7,8-dimethoxy-N,4-dimethyl-4,5-dihydro-3H-2,3-benzodiazepine-3-carboxamide] | 6.42 | 7.40
CNC(=O)N1N=C(c2ccc(-c3ccc(OC)cc3)cc2)c2cc(OC)c(OC)cc2CC1C (racemic) [Example 65, (±)-7,8-dimethoxy-1-(4′-methoxybiphenyl-4-yl)-N,4-dimethyl-4,5-dihydro-3H-2,3-benzodiazepine-3-carboxamide] | 6.20 | 7.00
CNC(=O)N1N=C(c2ccc(-c3ccccc3)cc2)c2cc(OC)c(OC)cc2CC1C (racemic) [Example 60, (±)-1-(biphenyl-4-yl)-7,8-dimethoxy-N,4-dimethyl-4,5-dihydro-3H-2,3-benzodiazepine-3-carboxamide] | 6.32 | 7.10
CNC(=O)N1N=C(c2ccc(N3CCCN(C)CC3=O)cc2)c2cc(OC)c(OC)cc2C[C@@H]1C [Example 229, (4S)-7,8-dimethoxy-N,4-dimethyl-1-[4-(4-methyl-2-oxo-1,4-diazepan-1-yl)phenyl]-4,5-dihydro-3H-2,3-benzodiazepine-3-carboxamide] | 6.85 | 7.15
CNC(=O)N1N=C(c2ccc(N3C[C@@H](C)NC[C@@H]3C)cc2)c2cc(OC)c(OC)cc2CC1C (mixture of isomers) [Example 192, (±)-1-{4-[(2S,5R)-2,5-dimethylpiperazin-1-yl]phenyl}-7,8-dimethoxy-N,4-dimethyl-4,5-dihydro-3H-2,3-benzodiazepine-3-carboxamide] | 6.57 | 7.05
CNC(=O)N1N=C(c2ccc(N3CCC(N(C)C)CC3)cc2)c2cc(OC)c(OC)cc2CC1C (racemic) [Example 180, (±)-1-{4-[4-(dimethylamino)piperidin-1-yl]phenyl}-7,8-dimethoxy-N,4-dimethyl-4,5-dihydro-3H-2,3-benzodiazepine-3-carboxamide] | 6.43 | 7.15
CNC(=O)N1N=C(c2ccc(-c3ccccc3C#N)cc2)c2cc(OC)c(OC)cc2CC1C (racemic) [Example 109, (±)-1-(2′-cyanobiphenyl-4-yl)-7,8-dimethoxy-N,4-dimethyl-4,5-dihydro-3H-2,3-benzodiazepine-3-carboxamide] | 5.94 | 7.30
CCOc1cc2c(cc1OCC)C(c1ccc(-c3c(C)noc3C)cc1)=NN(C(=O)NC)C(C)C2 (racemic) [Example 161, (±)-1-[4-(3,5-Dimethylisoxazol-4-yl)phenyl]-7,8-diethoxy-N,4-dimethyl-4,5-dihydro-3H-2,3-benzodiazepine-3-carboxamide] | 6.55 | 6.96
CNC(=O)N1N=C(c2ccc(-c3ccc(NS(C)(=O)=O)cc3)cc2)c2cc(OC)c(OC)cc2CC1C (racemic) [Example 70, (±)-7,8-dimethoxy-N,4-dimethyl-1-{4′-[(methylsulphonyl)amino]biphenyl-4-yl}-4,5-dihydro-3H-2,3-benzodiazepine-3-carboxamide] | 6.52 | 7.40
CNC(=O)N1N=C(c2ccc(-c3cncc(C)c3)cc2)c2cc(OC)c(OC)cc2CC1C (racemic) [Example 81, (±)-7,8-dimethoxy-N,4-dimethyl-1-[4-(5-methylpyridin-3-yl)phenyl]-4,5-dihydro-3H-2,3-benzodiazepine-3-carboxamide] | 6.52 | 7.30
CNC(=O)N1N=C(c2ccc(-c3cncnc3)cc2)c2cc(OC)c(OC)cc2CC1C (racemic) [Example 111, (±)-7,8-dimethoxy-N,4-dimethyl-1-[4-(pyrimidin-5-yl)phenyl]-4,5-dihydro-3H-2,3-benzodiazepine-3-carboxamide] | 6.09 | 7.10
CNC(=O)N1N=C(c2ccc(-c3ccc([N+](=O)[O-])cc3)cc2)c2cc(OC)c(OC)cc2CC1C (racemic) [Example 102, (±)-7,8-dimethoxy-N,4-dimethyl-1-(4′-nitrobiphenyl-4-yl)-4,5-dihydro-3H-2,3-benzodiazepine-3-carboxamide] | 6.02 | 7.05
CNC(=O)N1N=C(c2ccc(-c3c(C)noc3C)cc2)c2cc(N3CCOCC3)ccc2C[C@@H]1C [Example 176.2, (4S)-1-[4-(3,5-Dimethylisoxazol-4-yl)phenyl]-N,4-dimethyl-8-(morpholin-4-yl)-4,5-dihydro-3H-2,3-benzodiazepine-3-carboxamide] | 6.60 | 7.40
CNC(=O)N1N=C(c2ccc(-c3c(C)noc3C)cc2)c2cc(-n3nc(C)cc3C)ccc2CC1C (racemic) [Example 175, (±)-1-[4-(3,5-Dimethylisoxazol-4-yl)phenyl]-8-(3,5-dimethyl-1H-pyrazol-1-yl)-N,4-dimethyl-4,5-dihydro-3H-2,3-benzodiazepine-3-carboxamide] | 6.36 | 6.72
CNC(=O)N1N=C(c2ccc(-c3ccc(Cl)cc3)cc2)c2cc(OC)c(OC)cc2CC1C (racemic) [Example 63, (±)-1-(4′-chlorobiphenyl-4-yl)-7,8-dimethoxy-N,4-dimethyl-4,5-dihydro-3H-2,3-benzodiazepine-3-carboxamide] | 6.11 | 6.77
CCC1Cc2cc(OC)c(OC)cc2C(c2ccc(N3CCN(S(C)(=O)=O)CC3)cc2)=NN1C(=O)NC (racemic) [Example 203, (±)-4-ethyl-7,8-dimethoxy-N-methyl-1-{4-[4-(methylsulphonyl)piperazin-1-yl]phenyl}-4,5-dihydro-3H-2,3-benzodiazepine-3-carboxamide] | 5.48 | 6.08
CNC(=O)N1N=C(c2ccc(-c3ccc(OC)nc3)cc2)c2cc(OC)c(OC)cc2CC1C (racemic) [Example 66, (±)-7,8-dimethoxy-1-[4-(6-methoxypyridin-3-yl)phenyl]-N,4-dimethyl-4,5-dihydro-3H-2,3-benzodiazepine-3-carboxamide] | 6.20 | 7.15
CNC(=O)N1N=C(c2ccc(N3CCN(C)CC3)cc2)c2cc(OC)c(OC)cc2C[C@H]1C [Example 127.2, (4R)-7,8-dimethoxy-N,4-dimethyl-1-[4-(4-methylpiperazin-1-yl)phenyl]-4,5-dihydro-3H-2,3-benzodiazepine-3-carboxamide] | < 5.00 | 5.06
CNC(=O)N1N=C(c2ccc(-c3ccc(O)nc3)cc2)c2cc(OC)c(OC)cc2CC1C (racemic) [Example 49, (±)-1-[4-(6-hydroxypyridin-3-yl)phenyl]-7,8-dimethoxy-N,4-dimethyl-4,5-dihydro-3H-2,3-benzodiazepine-3-carboxamide] | 6.38 | 7.40
CCC1Cc2cc(OC)c(OC)cc2C(c2ccc(-c3c(C)nn(C)c3C)cc2)=NN1C(=O)NC (racemic) [Example 220, (±)-4-ethyl-7,8-dimethoxy-N-methyl-1-[4-(1,3,5-trimethyl-1H-pyrazol-4-yl)phenyl]-4,5-dihydro-3H-2,3-benzodiazepine-3-carboxamide] | 5.62 | 6.31
CNC(=O)N1N=C(c2ccc(-c3cncc(OC)c3)cc2)c2cc(OC)c(OC)cc2CC1C (racemic) [Example 80, (±)-7,8-dimethoxy-1-[4-(5-methoxypyridin-3-yl)phenyl]-N,4-dimethyl-4,5-dihydro-3H-2,3-benzodiazepine-3-carboxamide] | 6.25 | 7.30
CNC(=O)N1N=C(c2ccc(-c3c(C)noc3C)cc2)c2cc(OC(F)(F)F)c(Cl)cc2C[C@@H]1C [Example 156.1, (4S)-7-Chloro-1-[4-(3,5-dimethylisoxazol-4-yl)phenyl]-N,4-dimethyl-8-(trifluoromethoxy)-4,5-dihydro-3H-2,3-benzodiazepine-3-carboxamide] | 6.25 | 6.48
CNC(=O)N1N=C(c2ccc(N3CCN(C)CC3=O)cc2)c2cc(OC)c(OC)cc2C[C@H]1C [Example 43.2, (4R)-7,8-dimethoxy-N,4-dimethyl-1-[4-(4-methyl-2-oxopiperazin-1-yl)phenyl]-4,5-dihydro-3H-2,3-benzodiazepine-3-carboxamide] | 5.01 | 5.34
CNC(=O)N1N=C(c2ccc(N3CCC(C)(O)CC3)cc2)c2cc(OC)c(OC)cc2C[C@@H]1C [Example 188.2, (4S)-1-[4-(4-hydroxy-4-methylpiperidin-1-yl)phenyl]-7,8-dimethoxy-N,4-dimethyl-4,5-dihydro-3H-2,3-benzodiazepine-3-carboxamide] | 7.15 | 7.52
CNC(=O)N1N=C(c2ccc(-c3ccc(S(C)(=O)=O)cc3)cc2)c2cc(OC)c(OC)cc2CC1C (racemic) [Example 108, (±)-7,8-dimethoxy-N,4-dimethyl-1-[4′-(methylsulphonyl)biphenyl-4-yl]-4,5-dihydro-3H-2,3-benzodiazepine-3-carboxamide] | 5.81 | 7.22
CNC(=O)N1N=C(c2ccc(N3CCC(O)CC3)cc2)c2cc(Cl)c(OC(F)(F)F)cc2CC1C (racemic) [Example 212, (±)-8-chloro-1-[4-(4-hydroxypiperidin-1-yl)phenyl]-N,4-dimethyl-7-(trifluoromethoxy)-4,5-dihydro-3H-2,3-benzodiazepine-3-carboxamide] | 6.09 | 6.51
